Key:
Assay type in all cases: physicochemical
[1] = Oxidative degradation (30% hydrogen peroxide, 24 hours)
Experimental: 1) Oxidative Degradation A sample of 50 mg was weighed accurately and added to a 100.0 ml volumetric flask, dissolved by adding 10 ml methanol, 1.0 ml of 30% hydrogen peroxide was added, standing for 24 hours, then was diluted to the scale with methanol.
(§1) The HPLC conditions for content determination are as follows: […]

[2] = Degradation stability test: original sample and overall comparison (HPLC content determination)
Excerpt: Meanwhile, the degradation stabilities of A3/A4 oxime and the crystal form A of A3 oxime were compared in the invention, and the degradation conditions are as follows:
as §1

[3] = Protection from light (black PE bag and aluminum foil bag in light box, 18 hrs)
Experimental: About 600 mg of the sample was weighed, placed evenly in a weighing bottle, the weighing bottle containing the sample was put into a black PE bag, and then the PE bag was packaged with an aluminum foil bag, the aluminum foil bag was placed into a light box with an illuminance of 600 w/m^2. After illumination of 18 hrs, taken out, placed into a desiccator and cooled to room temperature, and the weight loss on drying was measured.
as §1

[4] = Photodegradation (light box, 600 w/m^2, 24 hrs)
Experimental: According to the ICH requirement, the total illuminance requirement of 200 w·hr/m^2 and 1,200,000 lux·hr is required for photodegradation. If the illuminance is 600 w/m^2, the ICH requirement is met, and the illumination time needs at least 9 hrs.
Approximately 600 mg of the sample was weighed, placed evenly in a weighing bottle, placed into a light box with an illuminance of 600 w/m^2 and illuminated for 24 hrs, taken out, placed into a desiccator and cooled to room temperature, and the weight loss on drying was measured.
as §1

[5] = Oxidation: 30% hydrogen peroxide in methanol, standing for 24 hours
[6] = Protection from light: PE bag and aluminum foil bag, light box 600 w/m^2, 18 hrs
[7] = Illumination: 600 w/m^2 for 24 hrs

Compound: CC1=C[C@H]2C(=O)O[C@H]3C[C@@H](C/C=C(\C)C[C@@H](C)/C=C/C=C4\CO[C@H](/C1=N\O)[C@@]42O)O[C@@]1(CC[C@H](C)[C@@H](C)O1)C3 [crystal form A of A3 oxime, Milbemycin A3 oxime]
- Total Impurity increment ([1]; Oxidation, versus original sample): −0.0847%
- Content [1, 5]: 98.3%
- Total Impurity [1, 5]: 0.2368%
- Content ([2]; Original sample, HPLC): 98.1%
- Total Impurity ([2]; Original sample, HPLC): 0.3215%
- stability (degradation stability test results) ([2]; overall comparison of Table 2): significantly better than that of A3/A4 oxime
- Total Impurity increment ([3]; Protection from light, versus original sample): 0.0156%
- Content [3, 6]: 96.9%
- Total Impurity [3, 6]: 0.3371%
- Total Impurity increment ([4]; Illumination, versus original sample): 1.2485%
- Content [4, 7]: 96.8%
- Total Impurity [4, 7]: 1.57%
